Results taken from patent publication US6875451B2, “Compositions and methods for the treatment of primary and metastatic neoplastic diseases using arsenic compounds” (PolaRx Biopharmaceuticals Inc., priority 1997, dated 2005).

Tests used:
Type in all cases: cell-based
SNB-19 = assay: SRB growth assay, 2 days exposure, CNS cancer
Description: (§1) Arsenic trioxide (1 mg/ml, 10 mg/ampoule, manufactured by Taylor Pharmaceuticals, Decatur, Ill.) was tested at five concentrations each at 10-fold dilutions, i.e., 10^−5, 10^−6, 10^−7, 10^−8 and 10^−9 μg/ml.
(§2) The in vitro tests were performed by incubating the test cells in the presence of the indicated concentration of arsenic trioxide under standard culture conditions for a designated period of time, which is followed by a sulforhodamine B (SRB) protein assay to estimate cell viability or growth. The cell lines are organized into subpanels according to the origin of the cell lines, e.g., leukemia, breast cancer, etc. A description of the cell lines and method of testing is described in Monk et al. (1997, Anticancer Drug Des. 12:533-41) and Weinstein et al., (1997, Science 275:343-9), which are incorporated herein in their entirety.
(§3) The measurement of an effect is expressed in Percentage Growth (PG). The measured effect of the compound on a cell line is calculated according to one or the other of the following two expressions: If (Mean ODtest−Mean ODzero)≧0. then PG=100×(Mean ODtest−Mean ODzero)/(Mean ODctrl−Mean ODzero) If (Mean ODtest−Mean ODzero)<0. then PG=100×(Mean ODtest−Mean ODzero)/(Mean ODzero where: • Mean ODzero=the average of optical density measurements of SRB-derived color just before exposure of cells to the test compounds; • Mean ODtest=the average of optical density measurements of SRB-derived color after exposure of cells to the test compound for a designated period of time; and • Mean ODctrl=the average of optical density measurements of SRB-derived color after with no exposure of cells to the test compound for a designated period of time
(§4) The first two columns describe the subpanel (e.g., leukemia) and cell line (e.g., CCRF-CEM) involved. The next two columns list the Mean ODzero and Mean ODctrl; the next five columns list the Mean ODtest for each of five different concentrations. Each concentration is expressed as the log10 (molar or μg/ml). The next five columns list the calculated PGs for each concentration. The response parameters GI50, TGI and LC50 are interpolated values representing the concentrations at which the PG is +50, 0, and −50, respectively. Sometimes these response parameters cannot be obtained by interpolation. If, for instance, all of the PGs in a given row exceed +50, then none of the three parameters can be obtained by interpolation. In such a case, the value given for each response parameter is the highest concentration tested and is preceded by a “>” sign. This practice is extended similarly to the other possible situations where a response parameter cannot be obtained by interpolation.
(§5) In the first set, the cells from 56 different cancer cell lines were exposed to five concentrations of arsenic trioxide continuously for two days prior to performing the SRB assay. In the second set, the cells from 50 different cell lines (a subset of the first 56 cell lines, plus the renal cancer cell line 786-0) were exposed continuously for six days prior to the SRB assay.

SF-268 = assay: SRB growth assay, 2 days exposure, CNS cancer
Description: as §1, §2, §3, §4, §5

SF-539 = assay: SRB growth assay, 2 days exposure, CNS cancer
Description: as §1, §2, §3, §4, §5

SNB-75 = assay: SRB growth assay, 2 days exposure, CNS cancer
Description: as §1, §2, §3, §4, §5

MDA-MB-435 = assay: SRB growth assay, 6 days exposure, breast cancer; details: MDA-MB-435, 6 days
Description: as §1, §2, §3, §4, §5

NCI/ADR-RIS = assay: SRB growth assay, 6 days exposure, breast cancer
Description: as §1, §2, §3, §4, §5

T-47D = assay: SRB growth assay, 6 days exposure, breast cancer
Description: as §1, §2, §3, §4, §5

HS 578T = assay: SRB growth assay, 6 days exposure, breast cancer
Description: as §1, §2, §3, §4, §5

MDA-MB-231/ATCC = assay: SRB growth assay, 6 days exposure, breast cancer
Description: as §1, §2, §3, §4, §5

BR-549 = assay: SRB growth assay, 6 days exposure, breast cancer; details: BT-549, 6 days
Description: as §1, §2, §3, §4, §5

[1] = read-out: LC50 (the source's name)

arsenic trioxide
TGI (SNB-19): >0.0126 ng/mL
Percent Growth (SNB-19; log10 conc −4.9): 36%
Percent Growth (SNB-19; log10 conc −5.9): 97%
Percent Growth (SNB-19; log10 conc −6.9): 98%
Percent Growth (SNB-19; log10 conc −7.9): 97%
Percent Growth (SNB-19; log10 conc −8.9): 93%
TGI (SF-268): >0.0126 ng/mL
Percent Growth (SF-268; log10 conc −4.9): 23%
Percent Growth (SF-268; log10 conc −5.9): 100%
Percent Growth (SF-268; log10 conc −6.9): 108%
Percent Growth (SF-268; log10 conc −7.9): 94%
Percent Growth (SF-268; log10 conc −8.9): 110%
TGI (SF-539): 0.00885 ng/mL
Percent Growth (SF-539; log10 conc −4.9): −17%
Percent Growth (SF-539; log10 conc −5.9): 92%
Percent Growth (SF-539; log10 conc −6.9): 113%
Percent Growth (SF-539; log10 conc −7.9): 117%
Percent Growth (SF-539; log10 conc −8.9): 109%
TGI (SNB-75): 0.00698 ng/mL
Percent Growth (SNB-75; log10 conc −4.9): −17%
Percent Growth (SNB-75; log10 conc −5.9): 37%
Percent Growth (SNB-75; log10 conc −6.9): 115%
Percent Growth (SNB-75; log10 conc −7.9): 100%
Percent Growth (SNB-75; log10 conc −8.9): 77%
TGI (MDA-MB-435): 3.10E−06
Mean Optical Densities (MDA-MB-435; Log 10 Concentration −4.9): 0.021
Percent Growth (MDA-MB-435; Log 10 Concentration −4.9): −62%
Mean Optical Densities (MDA-MB-435; Log 10 Concentration −5.9): 0.631
Percent Growth (MDA-MB-435; Log 10 Concentration −5.9): 40%
Mean Optical Densities (MDA-MB-435; Log 10 Concentration −6.9): 0.865
Percent Growth (MDA-MB-435; Log 10 Concentration −6.9): 56%
Mean Optical Densities (MDA-MB-435; Log 10 Concentration −7.9): 1.470
Percent Growth (MDA-MB-435; Log 10 Concentration −7.9): 98%
Mean Optical Densities (MDA-MB-435; Log 10 Concentration −8.9): 1.276
Percent Growth (MDA-MB-435; Log 10 Concentration −8.9): 85%
TGI (NCI/ADR-RIS): >1.26E−05
Mean Optical Densities (NCI/ADR-RIS; Log 10 Concentration −4.9): 0.072
Percent Growth (NCI/ADR-RIS; Log 10 Concentration −4.9): 1%
Mean Optical Densities (NCI/ADR-RIS; Log 10 Concentration −5.9): 1.319
Percent Growth (NCI/ADR-RIS; Log 10 Concentration −5.9): 56%
Mean Optical Densities (NCI/ADR-RIS; Log 10 Concentration −6.9): 1.951
Percent Growth (NCI/ADR-RIS; Log 10 Concentration −6.9): 84%
Mean Optical Densities (NCI/ADR-RIS; Log 10 Concentration −7.9): 2.253
Percent Growth (NCI/ADR-RIS; Log 10 Concentration −7.9): 98%
Mean Optical Densities (NCI/ADR-RIS; Log 10 Concentration −8.9): 2.075
Percent Growth (NCI/ADR-RIS; Log 10 Concentration −8.9): 90%
CC50 (NCI/ADR-RIS; [1]): > 12.6 µM
TGI (T-47D): 2.90E−06
Mean Optical Densities (T-47D; Log 10 Concentration −4.9): 0.027
Percent Growth (T-47D; Log 10 Concentration −4.9): −73%
Mean Optical Densities (T-47D; Log 10 Concentration −5.9): 0.398
Percent Growth (T-47D; Log 10 Concentration −5.9): 41%
Mean Optical Densities (T-47D; Log 10 Concentration −6.9): 0.539
Percent Growth (T-47D; Log 10 Concentration −6.9): 61%
Mean Optical Densities (T-47D; Log 10 Concentration −7.9): 0.336
Percent Growth (T-47D; Log 10 Concentration −7.9): 33%
Mean Optical Densities (T-47D; Log 10 Concentration −8.9): 0.883
Percent Growth (T-47D; Log 10 Concentration −8.9): 108%
TGI (HS 578T): 4.12E−06
Mean Optical Densities (HS 578T; Log 10 Concentration −4.9): 0.010
Percent Growth (HS 578T; Log 10 Concentration −4.9): −91%
Mean Optical Densities (HS 578T; Log 10 Concentration −5.9): 0.706
Percent Growth (HS 578T; Log 10 Concentration −5.9): 96%
Mean Optical Densities (HS 578T; Log 10 Concentration −6.9): 0.890
Percent Growth (HS 578T; Log 10 Concentration −6.9): 126%
Mean Optical Densities (HS 578T; Log 10 Concentration −7.9): 0.587
Percent Growth (HS 578T; Log 10 Concentration −7.9): 77%
Mean Optical Densities (HS 578T; Log 10 Concentration −8.9): 0.777
Percent Growth (HS 578T; Log 10 Concentration −8.9): 108%
TGI (MDA-MB-231/ATCC): 3.18E−06
Mean Optical Densities (MDA-MB-231/ATCC; Log 10 Concentration −4.9): −0.001
Percent Growth (MDA-MB-231/ATCC; Log 10 Concentration −4.9): −100%
Mean Optical Densities (MDA-MB-231/ATCC; Log 10 Concentration −5.9): 0.563
Percent Growth (MDA-MB-231/ATCC; Log 10 Concentration −5.9): 67%
Mean Optical Densities (MDA-MB-231/ATCC; Log 10 Concentration −6.9): 0.771
Percent Growth (MDA-MB-231/ATCC; Log 10 Concentration −6.9): 102%
Mean Optical Densities (MDA-MB-231/ATCC; Log 10 Concentration −7.9): 0.764
Percent Growth (MDA-MB-231/ATCC; Log 10 Concentration −7.9): 101%
Mean Optical Densities (MDA-MB-231/ATCC; Log 10 Concentration −8.9): 0.759
Percent Growth (MDA-MB-231/ATCC; Log 10 Concentration −8.9): 100%
GI50 (BR-549): 2.22 µM
TGI (BR-549): 4.24E−06
Mean Optical Densities (BR-549; Log 10 Concentration −4.9): 0.018
Percent Growth (BR-549; Log 10 Concentration −4.9): −84%
Mean Optical Densities (BR-549; Log 10 Concentration −5.9): 1.697
Percent Growth (BR-549; Log 10 Concentration −5.9): 94%
Mean Optical Densities (BR-549; Log 10 Concentration −6.9): 1.963
Percent Growth (BR-549; Log 10 Concentration −6.9): 110%
Mean Optical Densities (BR-549; Log 10 Concentration −7.9): 1.940
Percent Growth (BR-549; Log 10 Concentration −7.9): 108%
Mean Optical Densities (BR-549; Log 10 Concentration −8.9): 1.876
Percent Growth (BR-549; Log 10 Concentration −8.9): 105%
CC50 (BR-549; [1]): 8.08 µM
